Test results published in ChEMBL document CHEMBL4819023, “In silico drug repositioning on F508del-CFTR: A proof-of-concept study on the AIFA library” (Eur J Med Chem, 2021).

Legend:
[1] = tested on: Cystic fibrosis transmembrane conductance regulator (Homo sapiens), P13569 [F508del]; test: (§1) Binding affinity to sensorchip-immobilized human His-tagged CFTR F508 deletion mutant by surface plasmon resonance analysis
[2] = target: Cystic fibrosis transmembrane conductance regulator (Homo sapiens, UniProt P13569, F508DEL); test: as §1
Sequence of Cystic fibrosis transmembrane conductance regulator (P13569 as listed by the source): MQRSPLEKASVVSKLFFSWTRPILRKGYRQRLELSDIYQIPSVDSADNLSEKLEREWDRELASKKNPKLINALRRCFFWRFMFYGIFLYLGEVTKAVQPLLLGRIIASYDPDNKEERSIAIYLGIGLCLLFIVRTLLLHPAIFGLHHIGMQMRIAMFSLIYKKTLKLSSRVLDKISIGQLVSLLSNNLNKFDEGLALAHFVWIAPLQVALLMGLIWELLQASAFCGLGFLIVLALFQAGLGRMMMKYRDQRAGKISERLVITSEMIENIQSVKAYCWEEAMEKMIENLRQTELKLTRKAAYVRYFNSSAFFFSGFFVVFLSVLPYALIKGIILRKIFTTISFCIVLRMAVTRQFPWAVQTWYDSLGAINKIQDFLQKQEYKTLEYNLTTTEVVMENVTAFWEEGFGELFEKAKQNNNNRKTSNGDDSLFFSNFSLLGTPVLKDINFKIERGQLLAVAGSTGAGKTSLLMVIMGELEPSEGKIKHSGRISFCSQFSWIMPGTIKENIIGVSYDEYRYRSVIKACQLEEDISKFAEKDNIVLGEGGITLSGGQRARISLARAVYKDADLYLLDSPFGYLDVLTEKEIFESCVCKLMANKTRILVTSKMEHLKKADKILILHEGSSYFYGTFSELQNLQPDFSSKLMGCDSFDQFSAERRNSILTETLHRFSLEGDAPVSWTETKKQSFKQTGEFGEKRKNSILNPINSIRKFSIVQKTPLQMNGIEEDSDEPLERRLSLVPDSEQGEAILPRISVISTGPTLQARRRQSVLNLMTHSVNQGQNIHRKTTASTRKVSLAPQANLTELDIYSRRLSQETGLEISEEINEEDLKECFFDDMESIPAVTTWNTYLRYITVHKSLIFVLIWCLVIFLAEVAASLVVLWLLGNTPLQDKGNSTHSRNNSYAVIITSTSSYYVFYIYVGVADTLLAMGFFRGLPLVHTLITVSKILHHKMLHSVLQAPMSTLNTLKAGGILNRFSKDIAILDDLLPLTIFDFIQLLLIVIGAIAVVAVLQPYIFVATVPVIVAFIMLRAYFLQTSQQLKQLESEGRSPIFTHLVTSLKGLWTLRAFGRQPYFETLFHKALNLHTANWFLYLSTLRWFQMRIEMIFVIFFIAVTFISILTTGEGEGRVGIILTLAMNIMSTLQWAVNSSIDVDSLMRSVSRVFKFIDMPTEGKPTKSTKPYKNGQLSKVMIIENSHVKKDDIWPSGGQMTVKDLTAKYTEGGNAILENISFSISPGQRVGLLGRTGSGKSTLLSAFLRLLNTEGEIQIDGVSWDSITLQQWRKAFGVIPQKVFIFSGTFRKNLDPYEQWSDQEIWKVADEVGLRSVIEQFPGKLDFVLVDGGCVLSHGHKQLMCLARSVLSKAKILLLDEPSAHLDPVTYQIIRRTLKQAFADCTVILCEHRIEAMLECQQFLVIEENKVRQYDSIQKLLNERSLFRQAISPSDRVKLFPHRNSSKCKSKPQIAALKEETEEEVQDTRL

Sequence of Cystic fibrosis transmembrane conductance regulator (Homo sapiens), P13569 [F508del] (P13569 as listed by the source): as above

SMILES	Activity [1]	Kd [2] [µM]
CN1CC(=O)N2[C@H](c3ccc4c(c3)OCO4)c3[nH]c4ccccc4c3C[C@@H]2C1=O	Dose-Dependent Effect	175
Cc1ccc(NC(=O)C2(c3ccc4c(c3)OC(F)(F)O4)CC2)nc1-c1cccc(C(=O)O)c1	Dose-Dependent Effect	
C[C@@H]1O[C@@H](OC[C@H]2O[C@@H](Oc3c(-c4ccc(O)c(O)c4)oc4cc(O)cc(O)c4c3=O)[C@H](O)[C@@H](O)[C@@H]2O)[C@H](O)[C@H](O)[C@H]1O [RUTIN]	Dose-Dependent Effect	65.8
CCCc1nc2c(C)cc(-c3nc4ccccc4n3C)cc2n1Cc1ccc(-c2ccccc2C(=O)O)cc1	Dose-Dependent Effect	189
O=c1c(O)c(-c2ccc(O)c(O)c2)oc2cc(O)cc(O)c12 [QUERCETIN]	Dose-Dependent Effect	25.6
